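Test compounds were applied to cells in 96-well plates for 48 hours at 5 doses. GI50: concentration for 50% inhibition of growth.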 Active and inactive are the calls of the source. Rule as the data show it: active = GI50 up to about 1.1 µM and inactive = higher.
Columns and labels:
Assay in all cases: inhibition of tumour cell growth, NCI panel, 48 h
[1] = system: A549
[2] = system: ACHN
[3] = system: CAKI-1
[4] = system: EKVX
[5] = system: HCC 2998
[6] = system: HOP-92
[7] = system: K562
[8] = system: LOX IMVI
[9] = system: Malme-3M
[10] = system: OVCAR-3
[11] = system: OVCAR-5
[12] = system: OVCAR-8
[13] = system: RXF 393
[14] = system: SK-MEL-28
[15] = system: U-251
[16] = system: UACC-62
[17] = system: UO-31
[18] = system: MDA-MB-435

O=C1OC(CC(=O)c2ccc(F)cc2)C(Cl)=C1Cl (configuration not stated)
GI50 [1]: 40 µM (inactive)
GI50 [2]: 34.4 µM (inactive)
GI50 [3]: 39.4 µM (inactive)
GI50 [4]: 48.4 µM (inactive)
GI50 [5]: 16.5 µM (inactive)
GI50 [6]: 20 µM (inactive)
GI50 [7]: 33 µM (inactive)
GI50 [8]: 16.8 µM (inactive)
GI50 [9]: 17.2 µM (inactive)
GI50 [10]: 22.1 µM (inactive)
GI50 [11]: 24.5 µM (inactive)
GI50 [12]: 19.4 µM (inactive)
GI50 [13]: 21.6 µM (inactive)
GI50 [14]: 43.3 µM (inactive)
GI50 [15]: 20 µM (inactive)
GI50 [16]: 17 µM (inactive)
GI50 [17]: 22.3 µM (inactive)

COc1cc2c(c(OC)c1OC)-c1ccc(SC)c(=O)cc1[C@@H](NCc1ccccc1[N+](=O)[O-])CC2
GI50 [1]: 0.00929 µM (active)
GI50 [2]: 0.0439 µM (active)
GI50 [3]: 0.01 µM (active)
GI50 [4]: 0.0564 µM (active)
GI50 [5]: 0.0128 µM (active)
GI50 [6]: 0.0257 µM (active)
GI50 [7]: 0.00369 µM (active)
GI50 [8]: 0.00834 µM (active)
GI50 [9]: 0.00817 µM (active)
GI50 [10]: 0.00428 µM (active)
GI50 [11]: 0.0216 µM (active)
GI50 [12]: 0.0184 µM (active)
GI50 [13]: 0.00286 µM (active)
GI50 [14]: 0.00444 µM (active)
GI50 [15]: 0.0154 µM (active)
GI50 [16]: 0.00326 µM (active)
GI50 [17]: 0.01 µM (active)

O=C(O)c1cc2ccccc2c(/N=N/c2ccc(S(=O)(=O)Nc3ncccn3)cc2)c1O
GI50 [1]: > 100 µM (inactive)
GI50 [2]: > 100 µM (inactive)
GI50 [3]: > 100 µM (inactive)
GI50 [4]: > 100 µM (inactive)
GI50 [5]: > 100 µM (inactive)
GI50 [6]: > 100 µM (inactive)
GI50 [7]: > 100 µM (inactive)
GI50 [18]: > 100 µM (inactive)
GI50 [9]: > 100 µM (inactive)
GI50 [10]: > 100 µM (inactive)
GI50 [11]: > 100 µM (inactive)
GI50 [12]: > 100 µM (inactive)
GI50 [13]: > 100 µM (inactive)
GI50 [14]: > 100 µM (inactive)
GI50 [15]: > 100 µM (inactive)
GI50 [16]: > 100 µM (inactive)
GI50 [17]: > 100 µM (inactive)

CC1=CC(=O)N(c2c(C)cccc2Cl)C(C)N1 (configuration not stated)
GI50 [1]: > 100 µM (inactive)
GI50 [2]: > 100 µM (inactive)
GI50 [3]: > 100 µM (inactive)
GI50 [4]: > 100 µM (inactive)
GI50 [5]: > 100 µM (inactive)
GI50 [6]: > 100 µM (inactive)
GI50 [7]: > 100 µM (inactive)
GI50 [8]: > 100 µM (inactive)
GI50 [9]: > 100 µM (inactive)
GI50 [10]: > 100 µM (inactive)
GI50 [11]: > 100 µM (inactive)
GI50 [12]: > 100 µM (inactive)
GI50 [13]: > 100 µM (inactive)
GI50 [14]: > 100 µM (inactive)
GI50 [15]: > 100 µM (inactive)
GI50 [16]: > 100 µM (inactive)
GI50 [17]: > 100 µM (inactive)

O=C(/C=C1\Nc2ccccc2C(=O)N1c1ccccc1Cl)c1ccccc1
GI50 [1]: 87.5 µM (inactive)
GI50 [2]: > 100 µM (inactive)
GI50 [3]: > 100 µM (inactive)
GI50 [4]: > 100 µM (inactive)
GI50 [5]: > 100 µM (inactive)
GI50 [6]: 17.9 µM (inactive)
GI50 [7]: 87.5 µM (inactive)
GI50 [8]: > 100 µM (inactive)
GI50 [9]: > 100 µM (inactive)
GI50 [10]: 88.9 µM (inactive)
GI50 [11]: > 100 µM (inactive)
GI50 [12]: > 100 µM (inactive)
GI50 [13]: > 100 µM (inactive)
GI50 [14]: > 100 µM (inactive)
GI50 [15]: > 100 µM (inactive)
GI50 [16]: > 100 µM (inactive)
GI50 [17]: > 100 µM (inactive)

CSC(=S)NNC(=O)c1ccncc1
GI50 [1]: 61.4 µM (inactive)
GI50 [2]: 18.1 µM (inactive)
GI50 [3]: 21.1 µM (inactive)
GI50 [4]: 22.2 µM (inactive)
GI50 [5]: 23.6 µM (inactive)
GI50 [6]: 25.3 µM (inactive)
GI50 [7]: 19.2 µM (inactive)
GI50 [8]: 16.8 µM (inactive)
GI50 [9]: 18.8 µM (inactive)
GI50 [10]: 21.4 µM (inactive)
GI50 [11]: 23.9 µM (inactive)
GI50 [12]: 19.8 µM (inactive)
GI50 [13]: 16.1 µM (inactive)
GI50 [14]: 18.9 µM (inactive)
GI50 [15]: 22.5 µM (inactive)
GI50 [16]: 16.5 µM (inactive)
GI50 [17]: 17.8 µM (inactive)
